Reference: publication PMC11151065, “Boosted Enzyme Activity via Encapsulation within Metal–Organic Frameworks with Pores Matching Enzyme Size and Shape” (Advanced Science, 2024)

Target: T1, cytochrome c (Cyt c) (Bos taurus, UniProt P62894)
T1 construct: gene CYCS; native holoprotein from cow heart (Sigma-Aldrich), free in solution
Experiment: absorbance of ABTS radical cation at […] nm
Type: biochemical
Conditions: free enzyme; peroxidase activity with H2O2 co-substrate; room temperature

T1 sequence (P62894 2-105): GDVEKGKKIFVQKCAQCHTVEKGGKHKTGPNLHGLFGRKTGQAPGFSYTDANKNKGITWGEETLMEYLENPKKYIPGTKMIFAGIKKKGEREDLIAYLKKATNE

CCn1c(=NN=c2sc3cc(S(=O)(=O)O)ccc3n2CC)sc2cc(S(=O)(=O)O)ccc21 [ABTS, 2,2′‐azino‐bis (3‐ethylbenzothiazoline‐6‐sulfonic acid)]
absorbance of ABTS radical cation at 415 nm: peroxidase catalytic properties of Cyt c were utilized to oxidize ABTS to ABTS▪^+
